Assay results as given in US20230310416A1, “SUSPENSION OF TRIAZOLE ANTIFUNGAL DRUG FOR ATOMIZER” (SHANGHAI FRONTIER HEALTH PHARMACEUTICAL TECHNOLOGY CO., LTD, priority 2020, published 2023).

Test system: bleomycin-induced idiopathic pulmonary fibrosis in mice
Experiment: Mouse model of pulmonary fibrosis induced by bleomycin, inhalation versus oral administration
Format: in vivo, ICR mice
Details: once a day for 22 days
Method: In order to investigate the efficacy of itraconazole suspension of the present invention by inhalation administration, a mouse model of pulmonary fibrosis induced by bleomycin 2 mg/kg/mouse was established and compared with that by oral administration.
Test animals: ICR mice: SPF grade, body weight 22-24 g, male.
Test drugs: itraconazole suspension prepared in Example 3
Model establishment: 2 mg/kg of bleomycin hydrochloride for injection was sprayed into the respiratory tract of each mouse to induce pulmonary fibrosis, 4 weeks later, a mouse pulmonary fibrosis model was established.
Animal grouping: Mice were randomly divided into 4 groups, namely a blank control group, a model group, an itraconazole inhalation group, in which 2.5 mg/kg was inhaled for 3 minutes (2.5 mg/kg Inhalation group) and an itraconazole oral group, in which 15 mg/kg was orally administrated(15 mg/kg Oral group). The drugs were administered once a day for 22 consecutive days from the fifth day after modeling.
Detecting indexes: the mice were sacrificed after administration, the trachea was separated, the left lung was ligated, the bronchoalveolar lavage (BAL) was performed, the bronchoalveolar lavage fluid (BALF) was taken for white cell count and classification count, after the lung tissue was fixed with formalin, paraffin embedding, sectioning, H & E staining and Masson’s staining were carried out. The contents of transforming growth factor (TGF- β 1), mouse type I collagen (Col I) and hydroxyproline in lung tissue in supernatant of the BALF were detected by a kit.

With `CCC(C)n1ncn(-c2ccc(N3CCN(c4ccc(OCC5COC(Cn6cncn6)(c6ccc(Cl)cc6Cl)O5)cc4)CC3)cc2)c1=O` (stereo not drawn) [itraconazole] the “Collagen deposition in lung tissue” value (2.5 mg/kg inhalation) was 62759.9±17865.8, the “Content of Col I in BALF” value (2.5 mg/kg inhalation) was 1.64 ± 0.64 ng/mL and the “Content of TGF-β1 in BALF” value (2.5 mg/kg inhalation) was 32.13 ± 25.97 pg/mL. For the same compound, the “Content of hydroxyproline in lung tissue” value (2.5 mg/kg inhalation) was 526.7 ±66.0 µg/g tissue, the “Number of neutrophils in BALF” value (2.5 mg/kg inhalation) was 12.08±5.85 1 × 10^4 cell/ml and the “Total number of white blood cells in BALF” value (2.5 mg/kg inhalation) was 26.13 ±5.93 1 × 10^4 cell/ml. For the same compound, the “Collagen deposition in lung tissue” value (15 mg/kg oral) was 166628.8±35819.8, the “Content of Col I in BALF” value (15 mg/kg oral) was 1.91 ± 0.86 ng/mL and the “Content of TGF-β1 in BALF” value (15 mg/kg oral) was 24.79 ± 12.72 pg/mL. For the same compound, the “Content of hydroxyproline in lung tissue” value (15 mg/kg oral) was 583.8 ±96.6 µg/g tissue, the “Number of neutrophils in BALF” value (15 mg/kg oral) was 13.71 ±7.58 1 × 10^4 cell/ml and the “Total number of white blood cells in BALF” value (15 mg/kg oral) was 29.13±10.99 1 × 10^4 cell/ml.
